PubChem BioAssay AID651886 (Southern Research Specialized Biocontainment Screening …, 2012)
The source made the active and inactive calls. The rule behind the calls is not given here.

test system: VEEV TC-83 infected cells, virus titer reduction; test: VEEV TC 83 virus titer reduction, infected cells, secondary screen, 5 µm (AID 651886); conditions: at 5 µM; stronger effect = lower value

Which log virus titer change does the source give for `CCN1CCN(Cc2nc3ccc(C#N)cc3c(=O)n2-c2ccccc2)CC1` here?
The log virus titer change was -1.65.

For `CCN1CCN(Cc2nc3ccc([N+](=O)[O-])cc3c(=O)n2-c2ccccc2)CC1`, which log virus titer change is on record?
The log virus titer change was less than -7.54.

`CN1CCN(C)C(=Nc2ccc([N+](=O)[O-])cc2C(=O)Nc2ccccc2)C1` was tested. Which log virus titer change did it give?
Its log virus titer change is less than -7.2.

`CN1CCN(C)C(=Nc2ccc(C#N)cc2C(=O)Nc2cccc(F)c2)C1` was tested. Which log virus titer change did it give?
The log virus titer change was -1.43.

Which log virus titer change does the source give for `CCN1CCN(Cc2nc3ccc(I)cc3c(=O)n2-c2ccccc2)CC1` here?
The log virus titer change was -0.33 (inactive).

Which log virus titer change does the source give for `CCN1CCN(C)CC1=Nc1ccc([N+](=O)[O-])cc1C(=O)Nc1ccccc1` here?
Its log virus titer change is less than -7.2.

How did the log virus titer change turn out when `CCN1CCN(Cc2nc3ccc([N+](=O)[O-])cc3c(=O)n2-c2cccc(F)c2)CC1` was run?
The log virus titer change was -7.11.

With `O=c1c2cc([N+](=O)[O-])ccc2nc(CN2CCNCC2)n1-c1ccccc1F` as the molecule, how does the log virus titer change read?
Its log virus titer change is less than -7.76.

For `CN1CCN(Cc2nc3ccc([N+](=O)[O-])cc3c(=O)n2-c2ccccc2F)CC1`, which log virus titer change is on record?
The log virus titer change was less than -7.76.

For `CCN1CCN(Cc2nc3ccc([N+](=O)[O-])cc3c(=O)n2-c2ccccc2F)CC1`, which log virus titer change is on record?
Its log virus titer change is -2.06.

How did the log virus titer change turn out when `CN1CCN(C)C(=Nc2ccc([N+](=O)[O-])cc2C(=O)Nc2ccccc2F)C1` was run?
The log virus titer change was -3.8.

`CN1CCN(C)C(=Nc2ccc(C#N)cc2C(=O)Nc2ccccc2)C1` was tested. Which log virus titer change did it give?
Its log virus titer change is -5.82.

`O=c1c2cc([N+](=O)[O-])ccc2nc(CN2CCCCC2)n1-c1ccccc1F` was tested. Which log virus titer change did it give?
The log virus titer change was -0.366 (inactive).

How did the log virus titer change turn out when `CCN1CCN(Cc2nc3ccc([N+](=O)[O-])cc3c(=O)n2-c2ccc(F)cc2)CC1` was run?
The log virus titer change was -5.88.

`COc1ccc(NC(=O)c2cc([N+](=O)[O-])ccc2N=C2CN(C)CCN2C)cc1` was tested. Which log virus titer change did it give?
The log virus titer change was less than -7.2.

With `O=c1c2cc([N+](=O)[O-])ccc2nc(CN2CCNCC2)n1-c1ccccc1` as the molecule, how does the log virus titer change read?
Its log virus titer change is less than -7.76.
